From patent US20110143958A1, “Methods of Identifying Modulators of Ubiquitin Ligases” (priority 2008, published 2011)

System: E3 ubiquitylation reaction (E1, E2, and E3)
Experiment: E3 ligase assay using 5′-IAF-UBA1, inhibition assays
Format: biochemical, human
Settings: E1, E2, and E3 pre-incubated with various concentrations for 30 minutes at room temperature; detection with 5′-IAF-UBA1 and immunoblot; FIGS. 9A-D
Method: E3 ligase reactions contained 10 nM GST-Praja1, 500 nM 6× His-SUMO-CARP2 or 500 nM 6× His-SUMO-MuRF1 as E3s, 50 nM E1, 150 nM UbcH5c (E2), 500 ng Ubiquitin, 2 mM ATP, 50 mM Tris-HCl pH8.0, 5 mM MgCl2, 0.1 mM DTT. For measuring SCF^Atrogin-1 E3 ligase activity, the reaction was assembled essentially as described above except that the E3 ligase contained 6× His-SUMO-Atrogin-1, Cullin-1 (“Cul1”), Roc-1 (“Rbx-1”) and 6× His-Skp1 (250 nM each). In order to obtain large amounts of the Cul1-Rbx1 complex for the SCF complex, we used a procedure to overexpress the Cul1-Rbx1 complex in E. coli. Zheng, et al., Nature, 416(6882):703-9 (2002). The Cul1 gene was split into two halves (residues 1-410 and residues 411-776) and co-expressed with GST-tagged Rbx1 as three different polypeptide chains. A PCR product encoding Skp1 was generated using the primers 5′-[…]-3′ (SEQ ID NO:28) and 5′-[…]-3′ (SEQ ID NO:29) and human Skp1 cDNA as the template. […]
For inhibition assays, reactions containing E1, E2, and E3 were pre-incubated with various concentrations of NEM and ubistatin A for 30 minutes at room temperature before initiating the reaction by adding ubiquitin and ATP. […] The wells were washed with 1× PBS and readings were taken using a fluorescence plate reader with excitation and emission wavelengths of 485 nm and 535 nm, respectively. […]

Row | inhibition of the E3 ubiquitylation assay | SMILES
1 | inhibited | O=C(Nc1ccc(/C=C/c2ccc(NC(=O)c3cc(S(=O)(=O)O)c4cccnc4c3O)cc2S(=O)(=O)O)c(S(=O)(=O)O)c1)c1cc(S(=O)(=O)O)c2cccnc2c1O [Ubistatin A]
2 | inhibited | CCN1C(=O)C=CC1=O [NEM]
